From ChEMBL document CHEMBL4483862, “Open-source discovery of chemical leads for next-generation chemoprotective antimalarials” (2018)

System: Plasmodium berghei
Assay: Luciferase/luciferin-expressing antifolate-resistant parasites were used to infect a culture of HepG2 cells that were pre-incubated with compounds. Infected hepatocytes emit light due to the luciferase reaction. Assay results are presented as the percent inhibition of light emission compared to control. […]
Format: functional
Conditions: sporozoite; for IC90: read-out: LUCIFERASE INFECTION ASSAY - IC90
[1] = read-out: LUCIFERASE INFECTION ASSAY - IC50

Structure (SMILES) | IC90 | IC50 [1] | other results
COc1cccc(-c2nc3ccc(NC(=O)Nc4ccc(OC(F)(F)F)cc4)cn3n2)c1 | > 10 µM |  | IC50 (FFLUC_HILL_SLOPE 45.6, FFLUC_R_SQUARED 0.742, read-out: LUCIFERASE INFECTION ASSAY - IC50): > 10 µM
Cc1sc2ncn3nc(-c4ccc(=O)[nH]n4)nc3c2c1C | > 11.1 µM | > 11.1 µM | 
CSc1sc(C(=O)NC(=O)Nc2ccccc2Cl)c2c1-c1nocc1CC2 | > 7.86 µM |  | IC50 (HEPG2TOX_HILL_SLOPE 9.91, HEPG2TOX_R_SQUARED 0.105, read-out: LUCIFERASE INFECTION ASSAY - IC50): > 7.86 µM
Cc1ncc(S(=O)(=O)Cc2ccco2)c(N)n1 | > 13 µM | > 13 µM | 
O=C1NCC(CSc2nc3cc(Cl)ccc3c(=O)n2C2CCCCC2)O1 (centres undefined) | 7.92 µM |  | IC50 (PBLUC_HILL_SLOPE 3.9, PBLUC_R_SQUARED 0.536, read-out: LUCIFERASE INFECTION ASSAY - IC50): 4.51 µM
O=C1C(Cl)=C(Nc2ccc(O)cc2)C(=O)c2ccccc21 | 4.51 µM |  | IC50 (FFLUC_HILL_SLOPE 7.86, FFLUC_R_SQUARED 0.408, HEPG2TOX_HILL_SLOPE 4.2, HEPG2TOX_R_SQUARED 0.984, PBLUC_HILL_SLOPE 12.7, PBLUC_R_SQUARED 0.571, read-out: LUCIFERASE INFECTION ASSAY - IC50): 3.8 µM
CC(C)c1ccc(-c2cnc3sc(NCCCO)nn23)cc1 | > 10.4 µM | > 10.4 µM | 
CN(C)Cc1ccc(-c2ccccc2CNC(=O)CC2CC3CCC2C3)cc1 (centres undefined) | > 10 µM |  | IC50 (PBLUC_HILL_SLOPE 2, PBLUC_R_SQUARED 0.172, read-out: LUCIFERASE INFECTION ASSAY - IC50): > 10 µM
Cc1oc2c(c1C(=O)NC(C)(C)C)C(=O)c1ccccc1C2=O | 4.63 µM |  | IC50 (HEPG2TOX_HILL_SLOPE 2.79, HEPG2TOX_R_SQUARED 0.986, PBLUC_HILL_SLOPE 0.957, PBLUC_R_SQUARED 0.592, read-out: LUCIFERASE INFECTION ASSAY - IC50): 0.466 µM
O=C(NNC(=O)c1nn(-c2ccccc2)cc1O)c1ccc(-n2cccn2)cc1 | 4.26 µM |  | IC50 (HEPG2TOX_HILL_SLOPE 1.34, HEPG2TOX_R_SQUARED 0.874, PBLUC_HILL_SLOPE 11.6, PBLUC_R_SQUARED 0.65, read-out: LUCIFERASE INFECTION ASSAY - IC50): 3.53 µM
O=C(CN(Cc1ccccc1)S(=O)(=O)c1ccc(Cl)cc1)Nc1nnc(C(F)(F)F)s1 | 3.96 µM |  | IC50 (HEPG2TOX_HILL_SLOPE 2.23, HEPG2TOX_R_SQUARED 0.869, PBLUC_HILL_SLOPE 13.4, PBLUC_R_SQUARED 0.351, read-out: LUCIFERASE INFECTION ASSAY - IC50): 3.37 µM
Cc1nc2cc(NC(=O)CCCSc3nc4ccccc4[nH]3)ccc2o1 | > 10 µM |  | IC50 (PBLUC_HILL_SLOPE 4.06, PBLUC_R_SQUARED 0.0694, read-out: LUCIFERASE INFECTION ASSAY - IC50): 9.96 µM
Cc1nc(-c2ccc3c(c2)CCN3C(=O)C2(C)Cc3ccccc3C(=O)O2)cs1 (centres undefined) | > 10 µM |  | IC50 (PBLUC_HILL_SLOPE 2.39, PBLUC_R_SQUARED 0.602, read-out: LUCIFERASE INFECTION ASSAY - IC50): 4.47 µM
CCN1N=C(c2ccc(OC)cc2)c2ccc(OC)c3cccc1c23 | 8.69 µM |  | IC50 (FFLUC_HILL_SLOPE 16.1, FFLUC_R_SQUARED 0.71, HEPG2TOX_HILL_SLOPE 5.83, HEPG2TOX_R_SQUARED 0.386, PBLUC_HILL_SLOPE 3.16, PBLUC_R_SQUARED 0.408, read-out: LUCIFERASE INFECTION ASSAY - IC50): 4.33 µM
CC(=O)N1CCN(S(=O)(=O)c2ccc(C(=O)NCCCCCCC(C)C)cc2)CC1 | > 10 µM | > 10 µM | 
CC(OC(=O)c1ccccc1Nc1ccc(F)cc1)C(=O)N1CCCC1 (centres undefined) | 9.97 µM |  | IC50 (PBLUC_HILL_SLOPE 20.8, 17.7, PBLUC_R_SQUARED 0.125, 0.439, read-out: LUCIFERASE INFECTION ASSAY - IC50): 8.95 µM
Cc1cc(NC(=O)CCc2c(-c3ccc(F)cc3)[nH]c3ccc(F)cc23)no1 | > 10 µM | > 10 µM | 
CC(c1nc(N)nc(N(C)C)n1)N1CCN(C(c2ccc(F)cc2)c2ccc(F)cc2)CC1 (centres undefined) | 3.79 µM |  | IC50 (PBLUC_HILL_SLOPE 16.2, PBLUC_R_SQUARED 0.638, read-out: LUCIFERASE INFECTION ASSAY - IC50): 3.31 µM
COc1ccc([N+]2=C3CCCCCN3CC2(O)c2ccc(-c3ccccc3)cc2)cc1 (centres undefined) | > 10 µM |  | IC50 (HEPG2TOX_HILL_SLOPE 6.91, HEPG2TOX_R_SQUARED 0.498, PBLUC_HILL_SLOPE 1.91, PBLUC_R_SQUARED 0.528, read-out: LUCIFERASE INFECTION ASSAY - IC50): 3.24 µM
CC(C)(C)c1ccc(C(=O)NC(=S)NNC(=O)c2cccc([N+](=O)[O-])c2)cc1 | 3.57 µM |  | IC50 (PBLUC_HILL_SLOPE 3.29, PBLUC_R_SQUARED 0.591, read-out: LUCIFERASE INFECTION ASSAY - IC50): 1.83 µM
COc1ccc(-c2csc(NC(=O)c3cc4cc5ccc(OC)cc5nc4s3)n2)cc1 | > 10 µM | > 10 µM | 

Structure (SMILES) | IC90 | IC50 [1] | other results
CCC(C)(C)C1CCc2c(sc(NC(=O)CN3CCOCC3)c2C#N)C1 (centres undefined) | 8.57 µM |  | IC50 (PBLUC_HILL_SLOPE 4.77, PBLUC_R_SQUARED 0.355, read-out: LUCIFERASE INFECTION ASSAY - IC50): 5.41 µM
Clc1ccc(SCc2cc(N3CCOCC3)nc(-c3ccccn3)n2)cc1 | 4.86 µM | 4.81 µM | 
CC1CCc2nc(/C(C#N)=C/c3ccccc3OC(F)F)sc2C1 (centres undefined) | 3.92 µM |  | IC50 (FFLUC_HILL_SLOPE 11.1, FFLUC_R_SQUARED 0.825, PBLUC_HILL_SLOPE 3.87, PBLUC_R_SQUARED 0.911, read-out: LUCIFERASE INFECTION ASSAY - IC50): 2.22 µM
Cc1ccc(S(=O)(=O)NC(=O)c2ccc(Cl)nc2Cl)cc1 | > 10 µM | > 10 µM | 
CCN(CC)S(=O)(=O)c1cccc(C(=O)c2c(C)c(Sc3ccc(Cl)cc3)c3ccccn23)c1 | > 10 µM |  | IC50 (FFLUC_HILL_SLOPE 1.47, FFLUC_R_SQUARED 0.14, read-out: LUCIFERASE INFECTION ASSAY - IC50): > 10 µM
COc1cccc(-c2cn3c(-c4ccccc4)cnc3cn2)c1F | 10.2 µM |  | IC50 (PBLUC_HILL_SLOPE 10.4, PBLUC_R_SQUARED 0.353, read-out: LUCIFERASE INFECTION ASSAY - IC50): 8.27 µM
CN(C)c1cccc(-c2cnc3sc(NCCc4ccc(S(N)(=O)=O)cc4)nn23)c1 | > 7.46 µM |  | IC50 (FFLUC_HILL_SLOPE 1.97, FFLUC_R_SQUARED 0.664, read-out: LUCIFERASE INFECTION ASSAY - IC50): > 7.46 µM
Cc1ccc(-c2cc3nc(SCCOc4ccccc4F)n(Cc4ccccc4)c(=O)c3s2)cc1 | > 10 µM | > 10 µM | 
FC(F)(F)c1ccccc1NC(=S)N1CCCN(c2nc3ccc(Cl)cc3s2)CC1 | 2.54 µM | 2.32 µM | 
Cc1cc(C)n(-c2nc(C)c(Br)c(NC(C)c3ccccc3)n2)n1 (centres undefined) | > 8.54 µM |  | IC50 (PBLUC_HILL_SLOPE 5.33, PBLUC_R_SQUARED 0.256, read-out: LUCIFERASE INFECTION ASSAY - IC50): 5.95 µM
O=[N+]([O-])c1ccc(Nc2cccc(OC3CCCC3)c2)nc1 | > 10 µM | > 10 µM | 
CCn1nc(C)cc1-c1nnc(Sc2ncc([N+](=O)[O-])s2)n1C | 8.02 µM |  | IC50 (FFLUC_HILL_SLOPE 4.24, FFLUC_R_SQUARED 0.134, HEPG2TOX_HILL_SLOPE 11.7, HEPG2TOX_R_SQUARED 0.968, PBLUC_HILL_SLOPE 3.63, PBLUC_R_SQUARED 0.242, read-out: LUCIFERASE INFECTION ASSAY - IC50): 4.38 µM
CCC(C)NC(=O)c1c(NC(=O)c2ccc(F)c(Cl)c2)nc2ccc(C)cn12 (centres undefined) | 5.96 µM |  | IC50 (HEPG2TOX_HILL_SLOPE 2.61, HEPG2TOX_R_SQUARED 0.962, PBLUC_HILL_SLOPE 2.74, PBLUC_R_SQUARED 0.471, read-out: LUCIFERASE INFECTION ASSAY - IC50): 2.67 µM
Cc1cc(O)cc2c1C(=O)/C(=C/c1cc(Cl)cc3c1OCOC3)O2 | > 9.57 µM |  | IC50 (HEPG2TOX_HILL_SLOPE 1.65, HEPG2TOX_R_SQUARED 0.863, PBLUC_HILL_SLOPE 8.6, PBLUC_R_SQUARED 0.504, read-out: LUCIFERASE INFECTION ASSAY - IC50): 8.66 µM
Cc1ccc(-c2nnc(SCCOc3ccccc3C)nc2-c2ccc(C)cc2)cc1 | > 10 µM |  | IC50 (HEPG2TOX_HILL_SLOPE 0.184, HEPG2TOX_R_SQUARED 0.53, PBLUC_HILL_SLOPE 4.7, PBLUC_R_SQUARED 0.148, read-out: LUCIFERASE INFECTION ASSAY - IC50): 8.99 µM
O=C(CN(Cc1ccccc1Cl)S(=O)(=O)/C=C/c1ccccc1)Nc1ccc(F)cc1Cl | > 10 µM | > 10 µM | 
CC1(C(=O)Nc2cnc3ccccc3c2)CCN1Cc1ccccc1Cl (centres undefined) | > 9.02 µM |  | IC50 (HEPG2TOX_HILL_SLOPE 0.189, HEPG2TOX_R_SQUARED 0.318, read-out: LUCIFERASE INFECTION ASSAY - IC50): > 9.02 µM
CSc1nncn1-c1ccccc1 | 15.4 µM |  | IC50 (PBLUC_HILL_SLOPE 3.17, PBLUC_R_SQUARED 0.315, read-out: LUCIFERASE INFECTION ASSAY - IC50): 7.69 µM
CCCC/N=C1\SCC(c2c[nH]c3ccccc23)=NN1C | > 10 µM |  | IC50 (HEPG2TOX_HILL_SLOPE 0.211, HEPG2TOX_R_SQUARED 0.832, read-out: LUCIFERASE INFECTION ASSAY - IC50): > 10 µM
Fc1ccc(-c2nc3ccc(Cl)cc3[nH]2)cc1 | > 13.4 µM | > 13.4 µM | 
COCCCNc1nccn2c(-c3ccccc3OC)cnc12 | 5 µM |  | IC50 (FFLUC_HILL_SLOPE 1.63, FFLUC_R_SQUARED 0.685, HEPG2TOX_HILL_SLOPE 3.12, HEPG2TOX_R_SQUARED 0.689, PBLUC_HILL_SLOPE 1.97, PBLUC_R_SQUARED 0.68, read-out: LUCIFERASE INFECTION ASSAY - IC50): 1.64 µM
